In ChEMBL document CHEMBL4138146, “A Schmidt rearrangement-mediated synthesis of novel tetrahydro-benzo[1,4]diazepin-5-ones as potential anticancer and antiprotozoal agents” (Eur J Med Chem, 2017):

Key:
Type in all cases: functional
MDA-MB-435 = assay: Growth inhibition of human MDA-MB-435 cells incubated for 48 hrs by sulforhodamine B assay; settings: MDA-MB-435, 48 h
SF-295 [1] = assay: Growth inhibition of human SF295 cells assessed as cell growth at 10^-4 M incubated for 48 hrs by sulforhodamine B assay relative to control; settings: SF-295, 48 h, read-out: Activity
SK-OV-3 = assay: Growth inhibition of human SKOV3 cells incubated for 48 hrs by sulforhodamine B assay; settings: SK-OV-3, 48 h; for CC50: read-out: LC50 (the source's name)
MCF7 = assay: Growth inhibition of human MCF7 cells assessed as cell growth at 10^-6 M incubated for 48 hrs by sulforhodamine B assay relative to control; settings: MCF7, 48 h, read-out: Activity
NCI/ADR-RES = assay: Growth inhibition of human NCI/ADR-RES cells assessed as cell growth at 10^-4 M incubated for 48 hrs by sulforhodamine B assay relative to control; settings: read-out: Activity
HCC 2998 = assay: Growth inhibition of human HCC2998 cells incubated for 48 hrs by sulforhodamine B assay; settings: HCC 2998, 48 h
UO-31 = assay: Growth inhibition of human UO31 cells assessed as cell growth at 10^-8 M incubated for 48 hrs by sulforhodamine B assay relative to control; settings: UO-31, 48 h, read-out: Activity
NCI-H226 = assay: Growth inhibition of human NCI-H226 cells assessed as cell growth at 10^-6 M incubated for 48 hrs by sulforhodamine B assay relative to control; settings: NCI-H226, 48 h, read-out: Activity
NCI-H460 = assay: Growth inhibition of human NCI-H460 cells incubated for 48 hrs by sulforhodamine B assay; settings: NCI-H460, 48 h
KM12 = assay: Growth inhibition of human KM12 cells incubated for 48 hrs by sulforhodamine B assay; settings: KM12, 48 h
SK-MEL-5 = assay: Growth inhibition of human SK-MEL-5 cells assessed as cell growth at 10^-5 M incubated for 48 hrs by sulforhodamine B assay relative to control; settings: SK-MEL-5, 48 h, read-out: Activity
OVCAR-8 = assay: Growth inhibition of human OVCAR8 cells assessed as cell growth at 10^-7 M incubated for 48 hrs by sulforhodamine B assay relative to control; settings: OVCAR-8, 48 h, read-out: Activity
RPMI-8226 [2] = assay: Growth inhibition of human RPMI8226 cells incubated for 48 hrs by sulforhodamine B assay; settings: RPMI-8226, 48 h; for CC50: read-out: LC50 (the source's name)
OVCAR-4 = assay: Growth inhibition of human OVCAR4 cells assessed as cell growth at 10^-4 M incubated for 48 hrs by sulforhodamine B assay relative to control; settings: OVCAR-4, 48 h, read-out: Activity
RPMI-8226 [3] = assay: Growth inhibition of human RPMI8226 cells assessed as cell growth at 10^-4 M incubated for 48 hrs by sulforhodamine B assay relative to control; settings: RPMI-8226, 48 h, read-out: Activity
RXF 393 = assay: Growth inhibition of human RXF393 cells assessed as cell growth at 10^-7 M incubated for 48 hrs by sulforhodamine B assay relative to control; settings: RXF 393, 48 h, read-out: Activity
A549 = assay: Growth inhibition of human A549/ATCC cells assessed as cell growth at 10^-5 M incubated for 48 hrs by sulforhodamine B assay relative to control; settings: A549, 48 h, read-out: Activity
SW-620 [4] = assay: Growth inhibition of human SW620 cells incubated for 48 hrs by sulforhodamine B assay; settings: SW-620, 48 h
HOP-92 = assay: Growth inhibition of human HOP92 cells incubated for 48 hrs by sulforhodamine B assay; settings: HOP-92, 48 h
IGROV-1 = assay: Growth inhibition of human IGROV1 cells assessed as cell growth at 10^-6 M incubated for 48 hrs by sulforhodamine B assay relative to control; settings: IGROV-1, 48 h, read-out: Activity
U-251 = assay: Growth inhibition of human U251 cells incubated for 48 hrs by sulforhodamine B assay; settings: U-251, 48 h
SN12C = assay: Growth inhibition of human SN12C cells assessed as cell growth at 10^-6 M incubated for 48 hrs by sulforhodamine B assay relative to control; settings: read-out: Activity
SW-620 [5] = assay: Growth inhibition of human SW620 cells assessed as cell growth at 10^-4 M incubated for 48 hrs by sulforhodamine B assay relative to control; settings: SW-620, 48 h, read-out: Activity
SF-539 = assay: Growth inhibition of human SF539 cells incubated for 48 hrs by sulforhodamine B assay; settings: SF-539, 48 h
SF-295 [6] = assay: Growth inhibition of human SF295 cells incubated for 48 hrs by sulforhodamine B assay; settings: SF-295, 48 h
NCI-H522 = assay: Growth inhibition of human NCI-H522 cells incubated for 48 hrs by sulforhodamine B assay; settings: NCI-H522, 48 h; for CC50: read-out: LC50 (the source's name)
MOLT-4 = assay: Growth inhibition of human MOLT4 cells incubated for 48 hrs by sulforhodamine B assay; settings: MOLT-4, 48 h; for CC50: read-out: LC50 (the source's name)
SK-MEL-2 = assay: Growth inhibition of human SK-MEL-2 cells assessed as cell growth at 10^-5 M incubated for 48 hrs by sulforhodamine B assay relative to control; settings: SK-MEL-2, 48 h, read-out: Activity
SK-MEL-28 = assay: Growth inhibition of human SK-MEL-28 cells incubated for 48 hrs by sulforhodamine B assay; settings: SK-MEL-28, 48 h; for CC50: read-out: LC50 (the source's name)
SNB-19 = assay: Growth inhibition of human SNB19 cells incubated for 48 hrs by sulforhodamine B assay; settings: SNB-19, 48 h
CCRF-CEM = assay: Growth inhibition of human CCRF-CEM cells incubated for 48 hrs by sulforhodamine B assay
T47D = assay: Growth inhibition of human T47D cells assessed as cell growth at 10^-6 M incubated for 48 hrs by sulforhodamine B assay relative to control; settings: read-out: Activity
ACHN = assay: Growth inhibition of human ACHN cells incubated for 48 hrs by sulforhodamine B assay; settings: for CC50: read-out: LC50 (the source's name)
HT-29 = assay: Growth inhibition of human HT-29 cells assessed as cell growth at 10^-5 M incubated for 48 hrs by sulforhodamine B assay relative to control; settings: HT-29, 48 h, read-out: Activity
[7] = read-out: LC50 (the source's name)

SMILES: CCCCOc1nc2ccccc2cc1C1CNC(=O)c2ccccc2N1 (stereo unspecified)
- GI50 (MDA-MB-435): 0.34 µM
- TGI (MDA-MB-435): 1.33 µM
- CC50 (MDA-MB-435; [7]): 7.6 µM
- growth at 100 µM (SF-295 [1]): -69%
- GI50 (SK-OV-3): 2.38 µM
- TGI (SK-OV-3): 9.96 µM
- CC50 (SK-OV-3): > 100 µM
- growth at 1 µM (MCF7): 62%
- growth at 100 µM (NCI/ADR-RES): -50%
- GI50 (HCC 2998): 3.58 µM
- TGI (HCC 2998): 26.7 µM
- CC50 (HCC 2998; [7]): > 100 µM
- growth at 0.01 µM (UO-31): 80%
- growth at 1 µM (NCI-H226): 92%
- GI50 (NCI-H460): 3.11 µM
- LC50 (concentration killing 50% of cells) (NCI-H460): 51.1 µM
- TGI (NCI-H460): 11.6 µM
- GI50 (KM12): 3.3 µM
- TGI (KM12): 80.6 µM
- CC50 (KM12; [7]): > 100 µM
- growth at 10 µM (SK-MEL-5): 10%
- growth at 0.1 µM (OVCAR-8): 98%
- GI50 (RPMI-8226 [2]): 2.86 µM
- TGI (RPMI-8226 [2]): 25.1 µM
- CC50 (RPMI-8226 [2]): > 100 µM
- growth at 100 µM (OVCAR-4): -37%
- growth at 100 µM (RPMI-8226 [3]): -14%
- growth at 0.1 µM (RXF 393): 86%
- growth at 10 µM (A549): 14%
- GI50 (SW-620 [4]): 2.19 µM
- TGI (SW-620 [4]): 27.1 µM
- CC50 (SW-620 [4]; [7]): > 100 µM
- GI50 (HOP-92): 1.92 µM
- TGI (HOP-92): 22.6 µM
- CC50 (HOP-92; [7]): > 100 µM
- growth at 1 µM (IGROV-1): 86%
- GI50 (U-251): 3.03 µM
- TGI (U-251): 13.7 µM
- CC50 (U-251; [7]): 50.1 µM
- growth at 1 µM (SN12C): 84%
- growth at 100 µM (SW-620 [5]): -24%
- GI50 (SF-539): 2.29 µM
- TGI (SF-539): 7.47 µM
- CC50 (SF-539; [7]): 44.9 µM
- GI50 (SF-295 [6]): 1.4 µM
- TGI (SF-295 [6]): 9.82 µM
- CC50 (SF-295 [6]; [7]): 52.4 µM
- GI50 (NCI-H522): 2.39 µM
- TGI (NCI-H522): 25.8 µM
- CC50 (NCI-H522): > 100 µM
- GI50 (MOLT-4): 3.05 µM
- TGI (MOLT-4): 13.6 µM
- CC50 (MOLT-4): > 100 µM
- growth at 10 µM (SK-MEL-2): 33%
- GI50 (SK-MEL-28): 5.89 µM
- TGI (SK-MEL-28): 27.3 µM
- CC50 (SK-MEL-28): 86.1 µM
- GI50 (SNB-19): 6.13 µM
- TGI (SNB-19): 75.3 µM
- CC50 (SNB-19; [7]): > 100 µM
- GI50 (CCRF-CEM): 2.95 µM
- LC50 (concentration killing 50% of cells) (CCRF-CEM): > 100 µM
- TGI (CCRF-CEM): 24.9 µM
- growth at 1 µM (T47D): 86%
- GI50 (ACHN): 3.92 µM
- TGI (ACHN): 17.1 µM
- CC50 (ACHN): 5.95 µM
- growth at 10 µM (HT-29): 3%

SMILES: COc1cccc2c1C(=O)c1c(O)c3c(c(O)c1C2=O)C[C@@](O)(C(=O)CO)C[C@@H]3O[C@H]1C[C@H](N)[C@H](O)[C@H](C)O1 [DOXORUBICIN]
- GI50 (MDA-MB-435): 0.25 µM
- GI50 (SK-OV-3): 0.22 µM
- CC50 (SK-OV-3): 100 µM
- GI50 (HCC 2998): 0.26 µM
- GI50 (NCI-H460): 0.02 µM
- GI50 (KM12): 0.27 µM
- GI50 (RPMI-8226 [2]): 0.08 µM
- CC50 (RPMI-8226 [2]): 100 µM
- GI50 (SW-620 [4]): 0.09 µM
- GI50 (HOP-92): 0.1 µM
- GI50 (U-251): 0.04 µM
- GI50 (SF-539): 0.12 µM
- GI50 (SF-295 [6]): 0.1 µM
- GI50 (NCI-H522): 0.03 µM
- CC50 (NCI-H522): 2.8 µM
- GI50 (MOLT-4): 0.03 µM
- CC50 (MOLT-4): 100 µM
- GI50 (SK-MEL-28): 0.08 µM
- CC50 (SK-MEL-28): 0.49 µM
- GI50 (SNB-19): 0.04 µM
- GI50 (CCRF-CEM): 0.08 µM
- GI50 (ACHN): 0.08 µM
- CC50 (ACHN): 100 µM
